This assay relates to BDF1 mice, P388 leukemia ip, median survival T/C. The experiment in a line: NCI In Vivo Anticancer Drug Screen. Data for tumor model P388 Leukemia (intraperitoneal) in B6D2F1 (BDF1) mice. Conditions: endpoint: median survival time, higher = longer survival. On the procedure: The antitumor activity of compounds was measured in mice bearing transplantable tumors. Survival or tumor size were measured and the results are expressed as the measurement made in the treated group (T) divided by the measurement made in the vehicle treated control group (C). The tumor model used in this assay is P388 Leukemia (intraperitoneal) in B6D2F1 (BDF1) mice

The mark [1] stands for this setting: dose: 100.0 mg/kg/injection, schedule: Q04DX003 (ip), vehicle: saline with Tween-80.
The mark [2] stands for this setting: dose: 200.0 mg/kg/injection, schedule: Q04DX003 (ip), vehicle: saline with Tween-80.
[3] abbreviates: dose: 400.0 mg/kg/injection, schedule: Q04DX003 (ip), vehicle: saline with Tween-80.
Where [4] appears, read: dose: 25.0 mg/kg/injection, schedule: Q04DX003 (ip), vehicle: saline with Tween-80.
Setting [5] is: dose: 50.0 mg/kg/injection, schedule: Q04DX003 (ip), vehicle: saline with Tween-80.
The mark [6] stands for this setting: dose: 50.0 mg/kg/injection, schedule: Q01DX009 (ip), vehicle: saline with Tween-80.
[7] abbreviates: dose: 100.0 mg/kg/injection, schedule: Q01DX009 (ip), vehicle: saline with Tween-80.
The mark [8] stands for this setting: dose: 200.0 mg/kg/injection, schedule: Q01DX009 (ip), vehicle: saline with Tween-80.
Setting [9] is: dose: 100.0 mg/kg/injection, schedule: Q01DX009 (ip), vehicle: Klucel (hydroxypropylcellulose) (HPC).
Setting [10] is: dose: 200.0 mg/kg/injection, schedule: Q01DX009 (ip), vehicle: Klucel (hydroxypropylcellulose) (HPC).
Where [11] appears, read: dose: 50.0 mg/kg/injection, schedule: Q01DX009 (ip), vehicle: Klucel (hydroxypropylcellulose) (HPC).
[12] abbreviates: dose: 100.0 mg/kg/injection, schedule: Q04DX003 (ip), vehicle: Klucel (hydroxypropylcellulose) (HPC).
[13] abbreviates: dose: 200.0 mg/kg/injection, schedule: Q04DX003 (ip), vehicle: Klucel (hydroxypropylcellulose) (HPC).

Molecules are shown by their SMILES. Several values for one entry are separate records, joined by “and”; a condition that tells them apart may be missing. Identical values can stand only once. Toxic doses and inconclusive results are not listed. Starred links: 1 amine or outer side, 2 acyl side, 3 side chain; linkers in the order of their positions; H or OH if unused. Positions of bridges follow the written chain, without caps; N, C: chain ends. Non-standard residues stand in square brackets, D forms with d. Residues, ends and D or L forms follow the SMILES beside them. Chains are numbered I, II in the order given. Actinocin(9to1) = Cc1c2oc3c(C)ccc(C(=O)[*:1])c3nc-2c(C(=O)[*:2])c(N)c1=O; NMeV = CN[CH](C(=O)O)C(C)C; Pip = O=C(O)[CH]1CCCCN1; Sar = CNCC(=O)O

For the compound `CC(C)(C)NC(=O)NCc1cccnc1`, the T/C was 91 % of control under setting [1], 95 % of control under setting [2] and 100 % of control under setting [3].

Consider `Cc1nc(Cl)c2c(n1)Oc1nc(C)nc(Cl)c1C2c1ccc(Cl)cc1`, for which the T/C was 88 % of control and 100 % of control (dose: 100.0 mg/kg/injection, schedule: Q01DX001 (ip), vehicle: Klucel (hydroxypropylcellulose) (HPC)); 95 % of control (dose: 200.0 mg/kg/injection, schedule: Q01DX001 (ip), vehicle: Klucel (hydroxypropylcellulose) (HPC)); 88 % of control and 90 % of control (dose: 400.0 mg/kg/injection, schedule: Q01DX001 (ip), vehicle: Klucel (hydroxypropylcellulose) (HPC)).

For `COC(=O)C1CCN(Cc2c[nH]c3ccccc23)CC1`, the T/C (dose: 12.5 mg/kg/injection, schedule: Q04DX003 (ip), vehicle: saline with Tween-80) was 96 % of control; the T/C under setting [4] was 96 % of control; the T/C under setting [5] is 111 % of control; the T/C under setting [1] is 102 % of control.

Take `CN(C)CCNc1cc(O)c2c(c1O)C(=O)c1ccccc1C2=O`: the T/C is 113 % of control (dose: 50.0 mg/kg/injection, schedule: Q01DX005 (ip), vehicle: saline with Tween-80); 103 % of control (dose: 100.0 mg/kg/injection, schedule: Q01DX005 (ip), vehicle: saline with Tween-80); 113 % of control (dose: 200.0 mg/kg/injection, schedule: Q01DX005 (ip), vehicle: saline with Tween-80).

On to `CCC(=O)O[C@H]1CC[C@H]2[C@@H]3C[C@H](F)C4=CC(=O)CC[C@]4(C)[C@H]3CC[C@]12C`, for which the T/C reads like this: under setting [1], 95 % of control; under setting [2], 95 % of control; (dose: 400.0 mg/kg/injection, schedule: Q01DX009 (ip), vehicle: saline sonified) 109 % of control; under setting [3], 109 % of control.

Turning to `CC1NC(=O)C2Cc3ccc(O)c(c3)Oc3ccc(cc3)C(O)C(C(=O)N2C)N(C)C(=O)C(C)NC(=O)C(Cc2ccc(O)cc2)N(C)C(=O)C(C)NC1=O` (stereo unspecified), the T/C by setting is: (dose: 1.0 mg/kg/injection, schedule: Q01DX009 (ip), vehicle: saline with Tween-80) 98 % of control; (dose: 2.0 mg/kg/injection, schedule: Q01DX009 (ip), vehicle: saline with Tween-80) 94 % of control; (dose: 4.0 mg/kg/injection, schedule: Q01DX009 (ip), vehicle: saline with Tween-80) 107 % of control; (dose: 8.0 mg/kg/injection, schedule: Q01DX009 (ip), vehicle: saline with Tween-80) 110 % of control; (dose: 16.0 mg/kg/injection, schedule: Q01DX009 (ip), vehicle: saline with Tween-80) 101 % of control.

In the case of `c1ccc(C2=C([P+](c3ccccc3)(c3ccccc3)c3ccccc3)CCN2)cc1`, the T/C (dose: 12.5 mg/kg/injection, schedule: Q01DX009 (ip), vehicle: saline with Tween-80) was 100 % of control.

On to `CC(=O)N1CCn2nccc21`, for which the T/C is, setting by setting: (dose: 100.0 mg/kg/injection, schedule: Q04DX003 (ip), vehicle: water) 104 % of control; (dose: 200.0 mg/kg/injection, schedule: Q04DX003 (ip), vehicle: water) 90 % of control; (dose: 400.0 mg/kg/injection, schedule: Q04DX003 (ip), vehicle: water) 112 % of control.

`CC(=O)Nc1ccn(C2OC(COC(C)=O)C(OC(C)=O)C2OC(C)=O)c(=O)n1` (stereo unspecified): the T/C under setting [1] is 109 % of control; the T/C (dose: 177.0 mg/kg/injection, schedule: Q04DX003 (ip), vehicle: saline with Tween-80) is 104 % of control; the T/C (dose: 266.0 mg/kg/injection, schedule: Q04DX003 (ip), vehicle: saline with Tween-80) is 100 % of control and 116 % of control; the T/C under setting [3] was 108 % of control and 118 % of control.

`Cc1nc2ccccc2nc1CC(O)(c1ccccc1)c1cccc2ccccc12` (stereo unspecified): the T/C is, setting by setting: under setting [6], 94 % of control; under setting [7], 95 % of control; under setting [8], 97 % of control.

As to `COC(=O)/C=C/c1ccc(Cl)cc1`, the T/C under setting [9] is 95 % of control; the T/C under setting [10] was 95 % of control; the T/C (dose: 400.0 mg/kg/injection, schedule: Q01DX009 (ip), vehicle: Klucel (hydroxypropylcellulose) (HPC)) was 91 % of control.

With `Clc1cc(Cl)c2c(c1)COCO2`, the T/C (dose: 25.0 mg/kg/injection, schedule: Q01DX009 (ip), vehicle: Klucel (hydroxypropylcellulose) (HPC)) is 104 % of control; the T/C under setting [11] was 100 % of control; the T/C under setting [9] is 109 % of control; the T/C under setting [12] was 90 % of control; the T/C under setting [10] is 90 % of control; the T/C under setting [13] was 100 % of control. Besides, under “dose: 400.0 mg/kg/injection, schedule: Q04DX003 (ip), vehicle: Klucel (hydroxypropylcellulose) (HPC)”, the T/C was 100 % of control.

With `Oc1ccccc1-c1nnc2sc3c(Cl)c4nn5c(-c6ccccc6O)nnc5sc4c(Cl)c3nn12`, the T/C runs as follows: under setting [6], 98 % of control; under setting [7], 98 % of control; under setting [8], 96 % of control.

In the case of `COc1ccccc1C(=O)NS(=O)(=O)c1ccc(Cl)cc1`, the T/C by setting is: under setting [11], 105 % of control; under setting [9], 110 % of control; under setting [10], 120 % of control.

`O=NN(CCCl)C(=O)Nc1ccc2[nH]c3ccccc3c2c1`: the T/C is, setting by setting: (dose: 30.0 mg/kg/injection, schedule: Q01DX009 (ip), vehicle: Klucel (hydroxypropylcellulose) (HPC)) 183 % of control; (dose: 45.0 mg/kg/injection, schedule: Q01DX009 (ip), vehicle: Klucel (hydroxypropylcellulose) (HPC)) 175 % of control; (dose: 65.0 mg/kg/injection, schedule: Q01DX009 (ip), vehicle: Klucel (hydroxypropylcellulose) (HPC)) 183 % of control and 192 % of control; (dose: 130.0 mg/kg/injection, schedule: Q01DX009 (ip), vehicle: Klucel (hydroxypropylcellulose) (HPC)) 208 % of control.

Regarding `CCCN1c2ccccc2Sc2ccccc21`, the T/C is 100 % of control under setting [4], 90 % of control under setting [5], 90 % of control under setting [1] and 90 % of control under setting [2].

With `Cc1c2oc3c(C)ccc(C(=O)NC4C(=O)NC(C(C)C)C(=O)N5CCCCC5C(=O)N(C)CC(=O)N(C)C(C(C)C)C(=O)OC4C)c3nc-2c(C(=O)NC2C(=O)NC(C(C)C)C(=O)N3CCCCC3C(=O)N(C)CC(=O)N(C)C(C(C)C)C(=O)OC2C)c(N)c1=O` (stereo unspecified) (I: TV[Pip][Sar][NMeV] / II: TV[Pip][Sar][NMeV]; ester I:1-I:C, II:1-II:C; linker I:N-II:N via Actinocin(9to1); configuration not given here), the T/C runs as follows: (dose: 0.25 mg/kg/injection, schedule: Q01DX009 (ip), vehicle: saline + alcohol) 114 % of control; (dose: 0.75 mg/kg/injection, schedule: Q04DX003 (ip), vehicle: saline + alcohol) 116 % of control; (dose: 2.0 mg/kg/injection, schedule: Q01DX009 (ip), vehicle: saline + alcohol) 162 % of control; (dose: 4.0 mg/kg/injection, schedule: Q01DX009 (ip), vehicle: saline + alcohol) 180 % of control; (dose: 6.0 mg/kg/injection, schedule: Q04DX003 (ip), vehicle: saline + alcohol) 160 % of control; (dose: 12.0 mg/kg/injection, schedule: Q04DX003 (ip), vehicle: saline + alcohol) 155 % of control.

In the case of `O=C(Oc1ccc([N+](=O)[O-])cc1)c1ccc(CBr)cc1`, the T/C reads like this: (dose: 25.0 mg/kg/injection, schedule: Q01DX009 (ip), vehicle: saline) 95 % of control; (dose: 50.0 mg/kg/injection, schedule: Q01DX009 (ip), vehicle: saline) 100 % of control; (dose: 100.0 mg/kg/injection, schedule: Q04DX003 (ip), vehicle: saline) 90 % of control; (dose: 200.0 mg/kg/injection, schedule: Q04DX003 (ip), vehicle: saline) 86 % of control.

For `CCCCCCCCC(CO)CO`, the T/C is 100 % of control under setting [6], 92 % of control under setting [7] and 95 % of control under setting [8].

`O=C(C(=O)c1ccc(Br)cc1)c1ccc(Br)cc1`: the T/C by setting is: under setting [7], 96 % of control; under setting [8], 98 % of control; (dose: 400.0 mg/kg/injection, schedule: Q01DX009 (ip), vehicle: saline with Tween-80) 98 % of control.

Take `Cc1c(N2CCCCC2)[nH]c2ccccc12`: the T/C was 100 % of control (dose: 50.0 mg/kg/injection, schedule: Q04DX003 (ip), vehicle: Klucel (hydroxypropylcellulose) (HPC)); 100 % of control under setting [12]; 95 % of control under setting [13].

Values taken from PubChem BioAssay AID328 (DTP/NCI, 2004).
